Assay results reported in the supplement of paper PMC10307832.

Columns and labels:
Experiment in all cases: relative viability (nuclei count vs DMSO), 5 days (fraction); higher = more cells survive
BEN = tested on: BEN
In short: (§1)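 Values are medians from duplicate plates. Each reflects relative viability, defined as the nuclei count of treated wells over that of vehicle wells. Lung cancer cell lines in 1536-well plates were pin-tool dosed one day after seeding with one drug alone or with a fixed anchor-drug dose plus five library-drug doses (not always all listed) in √10 steps, then fixed, stained and imaged at 4× after 5 days.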

EKVX = tested on: EKVX
In short: as §1

NCI-H1792 = tested on: NCI-H1792
In short: as §1

LCLC-97TM1 = tested on: LCLC-97TM1
In short: as §1

LOU-NH91 = tested on: LOU-NH91
In short: as §1

NCI-H727 = tested on: NCI-H727
In short: as §1

SK-MES-1 = tested on: SK-MES-1
In short: as §1

HCC-827 = tested on: HCC-827
In short: as §1

RERF-LC-KJ = tested on: RERF-LC-KJ
In short: as §1

LK-2 = tested on: LK-2
In short: as §1

EMC-BAC-2 = tested on: EMC-BAC-2
In short: as §1

COR-L 105 = tested on: COR-L 105
In short: as §1

SW 900 = tested on: SW 900
In short: as §1

NCI-H358 = tested on: NCI-H358
In short: as §1

NCI-H1944 = tested on: NCI-H1944
In short: as §1

NCI-H2126 = tested on: NCI-H2126
In short: as §1

EPLC-272H = tested on: EPLC-272H
In short: as §1

NCI-H1650 = tested on: NCI-H1650
In short: as §1

NCI-H2087 = tested on: NCI-H2087
In short: as §1

NCI-H1734 = tested on: NCI-H1734
In short: as §1

SW 1573 = tested on: SW 1573
In short: as §1

NCI-H522 = tested on: NCI-H522
In short: as §1

HCC-78 = tested on: HCC-78
In short: as §1

LU99A = tested on: LU99A
In short: as §1

CCCCCCCCCCCC1=C(O)C(=O)C=C(O)C1=O [Embelin] + O=C(c1cc(Cc2n[nH]c(=O)c3ccccc23)ccc1F)N1CCN(C(=O)C2CC2)CC1 [Olaparib] (partner 8 µM)
relative viability (BEN; first compound 0.08 µM): 1.15 | relative viability (BEN; first compound 0.8 µM): 1.37 | relative viability (BEN; first compound 2.53 µM): 1.13 | relative viability (BEN; first compound 8 µM): 1.22 | relative viability (EKVX; first compound 0.08 µM): 0.816 | relative viability (EKVX; first compound 0.8 µM): 0.856 | relative viability (EKVX; first compound 2.53 µM): 0.984 | relative viability (EKVX; first compound 8 µM): 0.897 | relative viability (NCI-H1792; first compound 0.08 µM): 0.507 | relative viability (NCI-H1792; first compound 0.8 µM): 0.42 | relative viability (NCI-H1792; first compound 2.53 µM): 0.547 | relative viability (NCI-H1792; first compound 8 µM): 0.278 | relative viability (LCLC-97TM1; first compound 0.08 µM): 0.38 | relative viability (LCLC-97TM1; first compound 0.8 µM): 0.462 | relative viability (LCLC-97TM1; first compound 2.53 µM): 0.445 | relative viability (LCLC-97TM1; first compound 8 µM): 0.45 | relative viability (LOU-NH91; first compound 0.08 µM): 0.931 | relative viability (LOU-NH91; first compound 0.8 µM): 1.01 | relative viability (LOU-NH91; first compound 2.53 µM): 0.988 | relative viability (LOU-NH91; first compound 8 µM): 0.924 | relative viability (NCI-H727; first compound 0.08 µM): 0.757 | relative viability (NCI-H727; first compound 0.8 µM): 0.621 | relative viability (NCI-H727; first compound 2.53 µM): 0.777 | relative viability (NCI-H727; first compound 8 µM): 0.633 | relative viability (SK-MES-1; first compound 0.08 µM): 0.757 | relative viability (SK-MES-1; first compound 0.8 µM): 0.815 | relative viability (SK-MES-1; first compound 2.53 µM): 0.802 | relative viability (SK-MES-1; first compound 8 µM): 0.214 | relative viability (HCC-827; first compound 0.08 µM): 0.634 | relative viability (HCC-827; first compound 0.8 µM): 0.648 | relative viability (HCC-827; first compound 2.53 µM): 0.701 | relative viability (HCC-827; first compound 8 µM): 0.715 | relative viability (RERF-LC-KJ; first compound 0.08 µM): 0.846 | relative viability (RERF-LC-KJ; first compound 0.8 µM): 0.956 | relative viability (RERF-LC-KJ; first compound 2.53 µM): 1.02 | relative viability (RERF-LC-KJ; first compound 8 µM): 0.48 | relative viability (LK-2; first compound 0.08 µM): 0.72 | relative viability (LK-2; first compound 0.8 µM): 0.515 | relative viability (LK-2; first compound 2.53 µM): 0.686 | relative viability (LK-2; first compound 8 µM): 0.69 | relative viability (EMC-BAC-2; first compound 0.08 µM): 0.48 | relative viability (EMC-BAC-2; first compound 0.8 µM): 0.378 | relative viability (EMC-BAC-2; first compound 2.53 µM): 0.453 | relative viability (EMC-BAC-2; first compound 8 µM): 0.492 | relative viability (COR-L 105; first compound 0.08 µM): 0.737 | relative viability (COR-L 105; first compound 0.8 µM): 0.611 | relative viability (COR-L 105; first compound 2.53 µM): 0.615 | relative viability (COR-L 105; first compound 8 µM): 0.573 | relative viability (SW 900; first compound 0.08 µM): 1 | relative viability (SW 900; first compound 0.8 µM): 0.771 | relative viability (SW 900; first compound 2.53 µM): 1.15 | relative viability (SW 900; first compound 8 µM): 0.918 | relative viability (NCI-H358; first compound 0.08 µM): 0.554 | relative viability (NCI-H358; first compound 0.8 µM): 0.658 | relative viability (NCI-H358; first compound 2.53 µM): 0.711 | relative viability (NCI-H358; first compound 8 µM): 0.623 | relative viability (NCI-H1944; first compound 0.08 µM): 0.402 | relative viability (NCI-H1944; first compound 0.8 µM): 0.474 | relative viability (NCI-H1944; first compound 2.53 µM): 0.472 | relative viability (NCI-H1944; first compound 8 µM): 0.425 | relative viability (NCI-H2126; first compound 0.08 µM): 0.901 | relative viability (NCI-H2126; first compound 0.8 µM): 0.954 | relative viability (NCI-H2126; first compound 2.53 µM): 0.936 | relative viability (NCI-H2126; first compound 8 µM): 0.892 | relative viability (EPLC-272H; first compound 0.08 µM): 0.845 | relative viability (EPLC-272H; first compound 0.8 µM): 0.924 | relative viability (EPLC-272H; first compound 2.53 µM): 0.752 | relative viability (EPLC-272H; first compound 8 µM): 1.14 | relative viability (NCI-H1650; first compound 0.08 µM): 0.775 | relative viability (NCI-H1650; first compound 0.8 µM): 0.85 | relative viability (NCI-H1650; first compound 2.53 µM): 1.02 | relative viability (NCI-H1650; first compound 8 µM): 0.817 | relative viability (NCI-H2087; first compound 0.08 µM): 0.649 | relative viability (NCI-H2087; first compound 0.8 µM): 0.729 | relative viability (NCI-H2087; first compound 2.53 µM): 0.688 | relative viability (NCI-H2087; first compound 8 µM): 0.607 | relative viability (NCI-H1734; first compound 0.08 µM): 0.623 | relative viability (NCI-H1734; first compound 0.8 µM): 0.568 | relative viability (NCI-H1734; first compound 2.53 µM): 0.651 | relative viability (NCI-H1734; first compound 8 µM): 0.644 | relative viability (SW 1573; first compound 0.08 µM): 0.545 | relative viability (SW 1573; first compound 0.8 µM): 0.561 | relative viability (SW 1573; first compound 2.53 µM): 0.443 | relative viability (SW 1573; first compound 8 µM): 0.47 | relative viability (NCI-H522; first compound 0.08 µM): 0.674 | relative viability (NCI-H522; first compound 0.8 µM): 0.633 | relative viability (NCI-H522; first compound 2.53 µM): 0.689 | relative viability (NCI-H522; first compound 8 µM): 0.945 | relative viability (HCC-78; first compound 0.08 µM): 0.953 | relative viability (HCC-78; first compound 0.8 µM): 0.78 | relative viability (HCC-78; first compound 2.53 µM): 0.961 | relative viability (HCC-78; first compound 8 µM): 0.778 | relative viability (LU99A; first compound 0.08 µM): 0.293 | relative viability (LU99A; first compound 0.8 µM): 0.218 | relative viability (LU99A; first compound 2.53 µM): 0.281 | relative viability (LU99A; first compound 8 µM): 0.241
